Reference: patent EP4685142A1, “TRIAZINE COMPOUND AND USE THEREOF” (Chengdu Zenitar Biomedical Technology Co., Ltd., priority 2023, dated 2024)
Like-named read-outs stand apart in the source and are kept apart here.

Molecular target: T1, NLRP3 inflammasome (Homo sapiens, UniProt Q96P20)
T1 construct: host or cells: THP-1 cells
Assay: Inhibitory activity of NLRP3 inflammasome in human monocytes (THP-1 cells, LPS + Nigericin, IL-1β ELISA)
Assay type: cell-based
Description: 1. Determination of inhibitory activity of NLRP3 inflammasome in human monocytes
Experimental method: THP-1 cells were cultured in RPMI culture medium containing PMA (10 µM), and then inoculated in 48-well plates at a density of 2×10^5 cells/mL, the plates were incubated overnight in a 5% CO2 incubator at 37°C. The next day, the above culture medium was replaced with Opti-MEM culture medium containing 1 µg/mL LPS. After 3 hours, the grown cells were simulated for 40 min with a drug, and then simulated for 40 min with Nigericin (10 µM), and a cell supernatant was harvested for ELISA analysis.
Table 2 Inhibitory activity of NLRP3 inflammasome

[1] = THP-1 cells, PMA, LPS 1 µg/mL 3 h, drug 40 min, Nigericin 10 µM 40 min, IL-1β ELISA, read-out: IC50

T1 sequence (Q96P20 whole entry): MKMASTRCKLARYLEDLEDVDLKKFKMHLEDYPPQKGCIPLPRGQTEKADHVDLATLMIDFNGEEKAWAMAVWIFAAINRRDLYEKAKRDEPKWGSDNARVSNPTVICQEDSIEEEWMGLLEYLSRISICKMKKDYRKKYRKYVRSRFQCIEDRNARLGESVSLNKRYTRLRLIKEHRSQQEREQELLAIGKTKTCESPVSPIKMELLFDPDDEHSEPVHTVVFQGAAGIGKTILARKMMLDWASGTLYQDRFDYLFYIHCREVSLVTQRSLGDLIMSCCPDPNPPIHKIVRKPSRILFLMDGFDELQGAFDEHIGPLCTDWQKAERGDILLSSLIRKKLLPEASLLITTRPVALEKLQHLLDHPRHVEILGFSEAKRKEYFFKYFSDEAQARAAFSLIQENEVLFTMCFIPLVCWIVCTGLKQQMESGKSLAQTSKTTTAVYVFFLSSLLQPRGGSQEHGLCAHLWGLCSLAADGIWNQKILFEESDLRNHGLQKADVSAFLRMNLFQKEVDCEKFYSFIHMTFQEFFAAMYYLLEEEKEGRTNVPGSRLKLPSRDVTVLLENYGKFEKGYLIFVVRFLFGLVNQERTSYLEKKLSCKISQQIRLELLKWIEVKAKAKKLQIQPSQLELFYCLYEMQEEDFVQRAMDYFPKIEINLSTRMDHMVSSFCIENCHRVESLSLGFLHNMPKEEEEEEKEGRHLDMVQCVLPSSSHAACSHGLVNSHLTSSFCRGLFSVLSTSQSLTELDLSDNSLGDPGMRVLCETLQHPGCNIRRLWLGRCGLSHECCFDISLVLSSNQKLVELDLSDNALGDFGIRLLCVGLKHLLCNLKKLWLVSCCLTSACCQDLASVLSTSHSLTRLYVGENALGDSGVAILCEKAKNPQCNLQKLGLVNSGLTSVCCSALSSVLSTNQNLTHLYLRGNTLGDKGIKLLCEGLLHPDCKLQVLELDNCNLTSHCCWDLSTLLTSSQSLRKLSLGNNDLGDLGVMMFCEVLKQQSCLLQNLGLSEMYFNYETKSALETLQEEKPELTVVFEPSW

| Structure (SMILES) | IC50 (read-out: IC50) [nM] | further results |
| --- | --- | --- |
| Cn1c(-c2ccc3c(c2O)CCC3=C(F)F)nnc(N[C@@H]2CCCN(CCO)C2)c1=O [Compound 1, (R)-3-(1-(difluoromethylene)-4-hydroxy-2,3-dihydro-1H-inden-5-yl)-6-((1-(2-hydroxyethyl)piperidin-3-yl)amino)-4-methyl-1,2,4-triazin-5(4H)-ketone] | 4.24 |  |
| [2H]C([2H])([2H])C([2H])([2H])N1CCC[C@@H](Nc2nnc(-c3ccc4ccccc4c3O)n(C)c2=O)C1 [Compound 7, (R)-6-((1-(ethyl-d5)piperidin-3-yl)amino)-3-(1-hydroxynaphthalen-2-yl)-4-methyl-1,2,4-triazi n-5(4H)-ketone] | 22.1 |  |
| [2H]C([2H])([2H])N1CCC[C@@H](Nc2nnc(-c3ccc4sccc4c3O)n(C)c2=O)C1 [Compound 10, (R)-3-(4-hydroxybenzo[b]thiophen-5-yl)-4-methyl-6-((1-(methyl-d3)piperidin-3-yl)amino)-1,2,4-triazin-5(4H)-ketone] |  | IC50 [1]: 3.9 nM |
| CCN1CCC[C@@H](Nc2nnc(-c3ccc(C4CC4)cc3O)n(C)c2=O)C1 [Compound 11, (R)-3-(4-cyclopropyl-2-hydroxyphenyl)-6-((1-ethylpiperidin-3-yl)amino)-4-methyl-1,2,4-triaz in-5(4H)-ketone] | 6.5 |  |
| Cn1c(-c2ccc3c(c2O)CCC3=C(F)F)nnc(N[C@@H]2CCCN(C3CC(F)(F)C3)C2)c1=O [Compound 14, (R)-6-((1-(3,3-Difluorocyclobutyl)piperidin-3-yl)amino)-3-(1-(difluoromethylene)-4-hydroxy-2,3-dihydro-1H-inden-5-yl)-4-methyl-1,2,4-triazin-5(4H)-ketone] | 32 |  |
| [2H]C([2H])([2H])C([2H])([2H])N1CCC[C@@H](Nc2nnc(-c3ccc4c(c3O)CCC4=C(F)F)n(C)c2=O)C1 [Compound 15, (R)-3-(1-(difluoromethylene)-4-hydroxy-2,3-dihydro-1H-inden-5-yl)-6-((1-(ethyl-d5)piperidin-3-yl)amino)-4-methyl-1,2,4-triazin-5(4H)-ketone] | 1.45 |  |
| CN1CCC[C@@H](Nc2nnc(-c3ccc4ccccc4c3O)n(C)c2=O)C1 [Compound 18, (R)-3-(1-hydroxy-2-naphthyl)-4-methyl-6-((1-methylpiperidin-3-yl)amino)-1,2,4-triazin-5(4H )-ketone] | 25 |  |
| CCN1CCC[C@@H](Nc2nnc(-c3ccc4ccccc4c3O)n(C)c2=O)C1 [Compound 19, (R)-6-((1-ethylpiperidin-3-yl)amino)-3-(1-hydroxynaphthalen-2-yl)-4-methyl-1,2,4-triazin-5(4H)-ketone] | 19.1 |  |
| Cn1c(-c2ccc3ccccc3c2O)nnc(N[C@@H]2CCCN(CCO)C2)c1=O [Compound 20, (R)-6-((1-(2-hydroxyethyl)piperidin-3-yl)amino]-3-(1-hydroxynaphthalen-2-yl)-4-methyl-1,2,4-triazin-5(4H)-ketone] | 35.1 |  |
| CN1CCC[C@@H](Nc2nnc(-c3ccc4sccc4c3O)n(C3CC3)c2=O)C1 [Compound 21, (R)-4-cyclopropyl-3-(4-hydroxybenzo[b]thiophen-5-yl)-6-((1-methylpiperidin-3-yl)amino)-1,2,4-triazin-5(4H)-ketone] | 3.51 |  |
| CCN1CCC[C@@H](Nc2nnc(-c3ccc4sccc4c3O)n(C3CC3)c2=O)C1 [Compound 22, (R)-4-cyclopropyl-6-((1-ethylpiperidin-3-yl)amino)-3-(4-hydroxybenzo[b]thiophen-5-yl)-1,2,4-triazin-5(4H)-ketone] | 2.57 |  |
| O=c1c(N[C@@H]2CCCN(CCO)C2)nnc(-c2ccc3sccc3c2O)n1C1CC1 [Compound 23, (R)-4-cyclopropyl-3-(4-hydroxybenzo[b]thiophen-5-yl)-6-((1-(2-hydroxyethyl)piperidin-3-yl)amino)-1,2,4-triazin-5(4H)-ketone] | 8.95 |  |
| C#Cc1ccc(-c2nnc(N[C@@H]3CCCN(CC)C3)c(=O)n2C)c(O)c1 [Compound 25, (R)-6-((1-ethylpiperidin-3-yl)amino)-3-(4-ethynyl-2-hydroxyphenyl)-4-methyl-1,2,4-triazin-5 (4H)-ketone] |  | IC50 [1]: 6.7 nM |
| C#Cc1ccc(-c2nnc(N[C@@H]3CCCN(CCO)C3)c(=O)n2C)c(O)c1 [Compound 26, (R)-3-(4-ethynyl-2-hydroxyphenyl)-6-((1-(2-hydroxyethyl)piperidin-3-yl)amino)-4-methyl-1,2,4-triazin-5(4H)-ketone] |  | IC50 [1]: 25.1 nM |
| CC#Cc1ccc(-c2nnc(N[C@@H]3CCCN(C)C3)c(=O)n2C)c(O)c1 [Compound 27, (R)-3-(2-hydroxy-4-(prop-1-yn-1-yl)phenyl)-4-methyl-6-((1-methylpiperidin-3-yl)amino)-1,2,4-triazin-5(4H)-ketone] |  | IC50 [1]: 14.3 nM |
| CC#Cc1ccc(-c2nnc(N[C@@H]3CCCN(CC)C3)c(=O)n2C)c(O)c1 [Compound 28, (R)-6-((1-ethylpiperidin-3-yl)Jamino)-3-(2-hydroxy-4-(prop-1-yn-1-yl)phenyl)-4-methyl-1,2,4-triazin-5(4H)-ketone] | 29.6 |  |

| Structure (SMILES) | IC50 (read-out: IC50) [nM] | further results |
| --- | --- | --- |
| CC#Cc1ccc(-c2nnc(N[C@@H]3CCCN(CCO)C3)c(=O)n2C)c(O)c1 [Compound 29, (R)-6-((1-(2-hydroxyethyl)piperidin-3-yl)amino)-3-(2-hydroxy-4-(prop-1-yn-1-yl)phenyl)-4-methyl-1,2,4-triazin-5(4H)-ketone] |  | IC50 [1]: 46.5 nM |
| C#Cc1ccc(-c2nnc(N[C@@H]3CCCC[C@H]3O)c(=O)n2C)c(O)c1 [Compound 31, 3-(4-ethynyl-2-hydroxyphenyl)-6-(((1R,2R)-2-hydroxycyclohexyl)amino)-4-methyl-1,2,4-tria zin-5(4H)-ketone] | 3.64 |  |
| CC#Cc1ccc(-c2nnc(N[C@@H]3CCCC[C@H]3O)c(=O)n2C)c(O)c1 [Compound 32, 3-(2-hydroxy-4-(prop-1-yn-1-yl)phenyl)-6-(((1R,2R)-2-hydroxycyclohexyl)amino)-4-methyl-1,2,4-triazin-5(4H)-ketone.] | 8.53 |  |
| Cn1c(-c2ccc3ccccc3c2O)nnc(N[C@@H]2CCCC[C@H]2O)c1=O [Compound 33, 6-(((1R,2R)-2-hydroxycyclohexyl)amino)-3-(1-hydroxynaphthalene-2-yl)-4-methyl-1,2,4-tria zine-5(4H)-ketone] | 12.5 |  |
| CN1CCO[C@H](CNc2nnc(-c3ccc4sccc4c3O)n(C)c2=O)C1 [Compound 34, (R)-3-(4-hydroxybenzo[b]thiophen-5-yl)-4-methyl-6-(((4-methylmorpholino-2-yl)methyl)amino)-1,2,4-triazine-5(4H)-ketone] | 75 |  |
| CN1C[C@H](Nc2nnc(-c3ccc4sccc4c3O)n(C)c2=O)CC(F)(F)C1 [Compound 37, (R)-6-((5,5-difluoro-1-methylpiperidin-3-yl)amino)-3-(4-hydroxybenzb[b]thiophen-5-yl)-4-m ethyl-1,2,4-triazin-5(4H)-ketone] | 15.1 |  |
| CN1CCC[C@@H](Nc2nnc(-c3ccc4sccc4c3OC(F)F)n(C)c2=O)C1 [Compound 38, (R)-3-(4-(difluoromethoxy)benzo[b]thiophen-5-yl)-4-methyl-6-((1-methylpiperidin-3-yl)amino)-1,2,4-triazin-5(4H)-ketone] | 257 |  |
| CN1CCC[C@@H](Nc2nnc(-c3ccc(C4CC4)cc3O)n(C)c2=O)C1 [Compound 39, (R)-3-(4-cyclopropyl-2-hydroxyphenyl)-4-methyl-6-((1-methylpiperidin-3-yl)amino)-1,2,4-tri azin-5(4H)-ketone] | 30 |  |
| CN1CCC[C@@H](Nc2nnc(-c3ccc(C#CC4CC4)cc3O)n(C)c2=O)C1 [Compound 44, (R)-3-(4-(cyclopropylethynyl)-2-hydroxyphenyl)-4-methyl-6-((1-methylpiperidin-3-yl)amino) -1,2,4-triazin-5(4H)-ketone] | 80 |  |
| CCN1CCC[C@@H](Nc2nnc(-c3ccc(C#CC4CC4)cc3O)n(C)c2=O)C1 [Compound 45, (R)-3-(4-(cyclopropylethynyl)-2-hydroxyphenyl)-6-((1-ethylpiperidin-3-yl)amino)-4-methyl-1 ,2,4-triazin-5(4H)-ketone] | 345 |  |
| CN1CCC[C@@H](Nc2nnc(-c3ccc(-c4ccc(F)cc4)cc3O)n(C)c2=O)C1 [Compound 46, (R)-3-(4'-fluoro-3-hydroxy-[1,1'-biphenyl]-4-yl)-4-methyl-6-((1-methylpiperidin-3-yl)amino)-1,2,4-triazin-5(4H)-ketone] |  | IC50: 25.5 nM |
| CN1CCC[C@@H](Nc2nnc(-c3ccc(-c4ncccn4)cc3O)n(C)c2=O)C1 [Compound 47, (R)-3-(2-hydroxy-4-(pyrimidin-2-yl)phenyl)-4-methyl-6-((1-methylpiperidin-3-yl)amino)-1,2,4-triazin-5(4H)-ketone] | 450 |  |
| CN1CCCC2CCN(c3nnc(-c4ccc5sccc5c4O)n(C)c3=O)C21 (stereo not shown) [Compound 48, 3-(4-hydroxybenzo[b]thiophen-5-yl)-4-methyl-6-(7-methyloctahydro-1H-pyrrolo[2,3-b]pyridin-1-yl)-1,2,4-triazin-5(4H)-ketone] |  | IC50 [1]: 18.5 nM |
| C[C@@H]1[C@H](Nc2nnc(-c3ccc4sccc4c3O)n(C)c2=O)CCCN1C [Compound 49, 6-(((2R,3R)-1,2-dimethylpiperidin-3-yl)amino)-3-(4-hydroxybenzo[b]thiophen-5-yl)-4-methy 1-1,2,4-triazin-5(4H)-ketone] | 8.12 |  |
| C[C@H]1CC[C@@H](Nc2nnc(-c3ccc4sccc4c3O)n(C)c2=O)CN1C [Compound 50, 6-(((3R,6S)-1,6-dimethylpiperidin-3-yl)amino)-3-(4-hydroxybenzo[b]thiophen-5-yl)-4-methyl-1,2,4-triazin-5 (4H)-ketone] | 350 |  |
